Laboratory results from patent publication US10017459B2, “β-substituted β-amino acids and analogs as chemotherapeutic agents and uses thereof” (Quadriga Biosciences, Inc., priority 2015, dated 2018).

What was measured:
B16 melanoma cells = assay: In vivo tumor growth suppression, B16 efficacy model; parameters: species or system mouse; details: C57BL/6 mice, IP daily for 12 days; test compound 5 mg/kg and 10 mg/kg, melphalan 2.5 mg/kg
[1] = tested on: LLCPK cells conditionally expressing hLAT1
[2] = tested on: human bone marrow cells (erythroid and myeloid progenitors); assay: In vitro bone marrow toxicity, colony forming cell assays; details: 14 days in culture, methylcellulose media

N[C@@H](Cc1ccc(N(CCCl)CCCl)cc1)C(=O)O [melphalan, reference compound]
Tumor Growth (% Control), 5 days post-dosing (B16 melanoma cells): 56 % Control | Tumor Growth (% Control), End of dosing (B16 melanoma cells): 33 % Control | percent surviving cells in cells expressing LAT1 versus cells not expressing LAT1 (in words) [1]: about the same | toxicity to bone marrow progenitor cells (BFU-E, CFU-GM, Total CFC) [2]: more toxic to bone marrow progenitor cells than compound (5)
